Results: patent US11053204B2, “Pyrimidinyloxy benzene derivatives as herbicides” (FMC Corporation, priority 2015, dated 2021)

Key:
Assay type in all cases: in vivo
[1] = system: nutsedge, yellow (yellow nutsedge, Cyperus esculentus); experiment: Test C preemergence, plant response rating; details: Preemergence
Outline: (§1)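 Pre-emergence: seeds sown in loam soil–sand blend or silt loam and sprayed with test chemicals in a non-phytotoxic solvent mixture with surfactant. Post-emergence: plants 2 to 18 cm (1- to 4-leaf stage) in peat-based potting medium, same formulation. Greenhouse 13 to 15 d; visual rating 0 (no effect) to 100 (complete control) versus controls.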

[2] = system: waterhemp (common waterhemp, Amaranthus rudis); experiment: Test C preemergence, plant response rating; details: Preemergence
Outline: as §1

[3] = system: lambsquarters (Chenopodium album); experiment: Test C preemergence, plant response rating; details: Preemergence
Outline: as §1

[4] = system: foxtail, giant (giant foxtail, Setaria faberii); experiment: Test C preemergence, plant response rating; details: Preemergence
Outline: as §1

[5] = system: ragweed (common ragweed, Ambrosia elatior); experiment: Test C preemergence, plant response rating; details: Preemergence
Outline: as §1

[6] = system: crabgrass, large (large crabgrass, Digitaria sanguinalis); experiment: Test C preemergence, plant response rating; details: Preemergence
Outline: as §1

[7] = system: blackgrass (Alopecurus myosuroides); experiment: Test C preemergence, plant response rating; details: Preemergence
Outline: as §1

corn (Zea mays) = experiment: Test C preemergence, plant response rating; details: Preemergence
Outline: as §1

[8] = system: wheat (winter wheat, Triticum aestivum); experiment: Test C preemergence, plant response rating; details: Preemergence
Outline: as §1

[9] = system: oilseed rape (Brassica napus); experiment: Test C preemergence, plant response rating; details: Preemergence
Outline: as §1

[10] = system: ryegrass, Italian (Italian ryegrass, Lolium multiflorum); experiment: Test C preemergence, plant response rating; details: Preemergence
Outline: as §1

soybean (Glycine max) = experiment: Test C preemergence, plant response rating; details: Preemergence
Outline: as §1

[11] = system: morningglory (Ipomoea coccinea); experiment: Test C preemergence, plant response rating; details: Preemergence
Outline: as §1

[12] = system: velvetleaf (Abutilon theophrasti); experiment: Test C preemergence, plant response rating; details: Preemergence
Outline: as §1

[13] = system: barnyardgrass (Echinochloa crus-galli); experiment: Test A postemergence, visual injury rating; details: 0 to 100 scale, 0 is no effect, 100 is complete control, approximately 10 days
Outline: (§2)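 Injury scores run from 0, no effect, to 100, complete control, judged by eye against untreated plants roughly 10 days after treatment. Chemicals carried a surfactant in a non-phytotoxic solvent and went onto loam–sand soil preemergence or onto one- to two-leaf seedlings postemergence.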

[14] = system: blackgrass (Alopecurus myosuroides); experiment: Test A postemergence, visual injury rating
Outline: as §2

[15] = system: galium (catchweed bedstraw, Galium aparine); experiment: Test A postemergence, visual injury rating
Outline: as §2

[16] = 31 g ai/ha, 0 to 100 scale (0 no effect, 100 complete control)
[17] = 125 g ai/ha, 0 to 100 scale, 0 is no effect, 100 is complete control, approximately 10 days

FC(F)(F)CCCCc1c(Br)cccc1Oc1ncc(Cl)cn1 [Compound 138]
98: Plant response rating, Waterhemp ([2]; 125 g ai/ha, scale of 0 to 100) | Plant response rating, Crabgrass, Large ([6]; 125 g ai/ha, scale of 0 to 100) | Plant response rating, Crabgrass, Large ([6]; 62 g ai/ha, scale 0 to 100)
35: Plant response rating, Lambsquarters ([3]; 31 g ai/ha, scale 0 to 100)
40: Blackgrass plant response rating [14, 16]
75: Plant response rating, Crabgrass, Large ([6]; 16 g ai/ha, scale 0 to 100)
25: Plant response rating, Lambsquarters ([3]; 62 g ai/ha, scale 0 to 100) | Plant response rating, Velvetleaf ([12]; 31 g ai/ha, scale 0 to 100)
85: Plant response rating, Waterhemp ([2]; 31 g ai/ha, scale 0 to 100) | Plant response rating, Foxtail, Giant ([4]; 62 g ai/ha, scale 0 to 100)
95: Plant response rating, Crabgrass, Large ([6]; 31 g ai/ha, scale 0 to 100)
5: Plant response rating, Corn (corn (Zea mays); 125 g ai/ha, scale of 0 to 100) | Plant response rating, Corn (corn (Zea mays); 62 g ai/ha, scale 0 to 100) | Plant response rating, Wheat ([8]; 31 g ai/ha, scale 0 to 100) | Plant response rating, Wheat ([8]; 62 g ai/ha, scale 0 to 100) | Plant response rating, Oilseed Rape ([9]; 62 g ai/ha, scale 0 to 100) | Plant response rating, Soybean (soybean (Glycine max); 125 g ai/ha, scale of 0 to 100)
70: Plant response rating, Lambsquarters ([3]; 125 g ai/ha, scale of 0 to 100) | Galium plant response rating [15, 16]
90: Plant response rating, Blackgrass ([7]; 125 g ai/ha, scale of 0 to 100) | Barnyardgrass plant response rating ([13]; 31 g ai/ha) | Barnyardgrass plant response rating ([13]; 125 g ai/ha) | Blackgrass plant response rating [14, 17]
0: Plant response rating, Nutsedge, Yellow ([1]; 125 g ai/ha, scale of 0 to 100) | Plant response rating, Nutsedge, Yellow ([1]; 31 g ai/ha, scale 0 to 100) | Plant response rating, Nutsedge, Yellow ([1]; 62 g ai/ha, scale 0 to 100) | Plant response rating, Ragweed ([5]; 31 g ai/ha, scale 0 to 100) | Plant response rating, Ragweed ([5]; 62 g ai/ha, scale 0 to 100) | Plant response rating, Corn (corn (Zea mays); 16 g ai/ha, scale 0 to 100) | Plant response rating, Corn (corn (Zea mays); 31 g ai/ha, scale 0 to 100) | Plant response rating, Oilseed Rape ([9]; 31 g ai/ha, scale 0 to 100) | Plant response rating, Soybean (soybean (Glycine max); 31 g ai/ha, scale 0 to 100) | Plant response rating, Soybean (soybean (Glycine max); 62 g ai/ha, scale 0 to 100) | Plant response rating, Morningglory ([11]; 31 g ai/ha, scale 0 to 100) | Plant response rating, Morningglory ([11]; 62 g ai/ha, scale 0 to 100)
100: Plant response rating, Waterhemp ([2]; 62 g ai/ha, scale 0 to 100) | Plant response rating, Foxtail, Giant ([4]; 125 g ai/ha, scale of 0 to 100) | Galium plant response rating [15, 17]
10: Plant response rating, Ragweed ([5]; 125 g ai/ha, scale of 0 to 100) | Plant response rating, Blackgrass ([7]; 16 g ai/ha, scale 0 to 100) | Plant response rating, Wheat ([8]; 125 g ai/ha, scale of 0 to 100) | Plant response rating, Ryegrass, Italian ([10]; 31 g ai/ha, scale 0 to 100) | Plant response rating, Morningglory ([11]; 125 g ai/ha, scale of 0 to 100)
20: Plant response rating, Oilseed Rape ([9]; 125 g ai/ha, scale of 0 to 100) | Plant response rating, Ryegrass, Italian ([10]; 62 g ai/ha, scale 0 to 100) | Plant response rating, Velvetleaf ([12]; 62 g ai/ha, scale 0 to 100)
50: Plant response rating, Blackgrass ([7]; 31 g ai/ha, scale 0 to 100) | Plant response rating, Velvetleaf ([12]; 125 g ai/ha, scale of 0 to 100)
80: Plant response rating, Foxtail, Giant ([4]; 31 g ai/ha, scale 0 to 100) | Plant response rating, Blackgrass ([7]; 62 g ai/ha, scale 0 to 100) | Plant response rating, Ryegrass, Italian ([10]; 125 g ai/ha, scale of 0 to 100)
